Calls of active or inactive are those of the source.
Tests used:
[1] = target: T1, High affinity choline transporter 1 (Homo sapiens, UniProt Q9GZV3); test: CHT inhibitors, dose response, cell-based, 5-point CRC, membrane potential dye (AID 504840); format: functional
T1 sequence (Q9GZV3 whole entry): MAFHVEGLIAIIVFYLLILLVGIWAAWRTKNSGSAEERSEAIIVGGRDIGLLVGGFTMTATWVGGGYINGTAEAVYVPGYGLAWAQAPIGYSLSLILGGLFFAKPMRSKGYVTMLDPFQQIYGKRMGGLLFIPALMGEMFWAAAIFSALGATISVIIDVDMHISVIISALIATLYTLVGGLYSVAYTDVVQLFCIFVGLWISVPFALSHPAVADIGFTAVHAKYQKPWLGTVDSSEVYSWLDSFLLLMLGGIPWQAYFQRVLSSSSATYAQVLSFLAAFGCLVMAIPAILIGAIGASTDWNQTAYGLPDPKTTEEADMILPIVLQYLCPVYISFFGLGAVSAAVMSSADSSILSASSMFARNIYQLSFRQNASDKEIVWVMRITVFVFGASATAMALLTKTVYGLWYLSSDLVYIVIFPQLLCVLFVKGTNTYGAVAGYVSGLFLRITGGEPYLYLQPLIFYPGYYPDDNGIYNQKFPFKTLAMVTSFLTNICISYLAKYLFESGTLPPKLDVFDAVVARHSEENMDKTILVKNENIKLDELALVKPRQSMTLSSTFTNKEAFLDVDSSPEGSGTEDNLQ

cells [2] = format: functional, cell-based
cells [3] = format: functional, cell-based; remark: listed apart in the source
[4] = target: T2, Short transient receptor potential channel 4 (Mus musculus, UniProt Q9QUQ5); test: mouse TRPC4 channel inhibitors, dose response, cell-based, HEK293 TRPC4/mu-opioid, Fluo-4 calcium (AID 434942); format: functional;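 note: potency of inhibitors blocking the TRPC4 calcium response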
T2 sequence (Q9QUQ5 whole entry): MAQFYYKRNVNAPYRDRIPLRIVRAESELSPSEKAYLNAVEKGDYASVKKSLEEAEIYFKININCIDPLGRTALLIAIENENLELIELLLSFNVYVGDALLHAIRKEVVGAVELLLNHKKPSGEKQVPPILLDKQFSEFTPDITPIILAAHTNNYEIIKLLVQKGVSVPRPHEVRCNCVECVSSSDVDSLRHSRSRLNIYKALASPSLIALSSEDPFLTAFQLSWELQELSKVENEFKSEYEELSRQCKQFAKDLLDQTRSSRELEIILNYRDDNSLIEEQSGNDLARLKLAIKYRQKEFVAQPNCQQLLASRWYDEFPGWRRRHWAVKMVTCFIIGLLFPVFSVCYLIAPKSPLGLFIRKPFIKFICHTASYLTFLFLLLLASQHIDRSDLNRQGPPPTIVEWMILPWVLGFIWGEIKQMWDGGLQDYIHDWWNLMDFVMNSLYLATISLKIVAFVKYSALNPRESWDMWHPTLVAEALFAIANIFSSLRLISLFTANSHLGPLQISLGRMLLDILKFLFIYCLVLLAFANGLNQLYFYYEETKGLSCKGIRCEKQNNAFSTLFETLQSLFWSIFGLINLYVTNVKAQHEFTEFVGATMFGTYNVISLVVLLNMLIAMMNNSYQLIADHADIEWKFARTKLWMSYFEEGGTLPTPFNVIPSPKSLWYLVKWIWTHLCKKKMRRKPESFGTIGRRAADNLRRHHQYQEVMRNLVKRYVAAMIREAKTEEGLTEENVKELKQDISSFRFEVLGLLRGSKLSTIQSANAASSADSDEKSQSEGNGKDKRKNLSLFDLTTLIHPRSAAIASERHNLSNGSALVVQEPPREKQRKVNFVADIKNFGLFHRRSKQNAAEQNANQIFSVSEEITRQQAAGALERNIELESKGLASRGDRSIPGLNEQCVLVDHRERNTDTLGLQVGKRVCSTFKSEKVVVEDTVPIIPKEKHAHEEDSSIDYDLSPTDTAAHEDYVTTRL

Caspase-3 = target: T3, Caspase-3 (Homo sapiens, UniProt P42574); format: functional;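 note: Dose-response selectivity test against caspase-3 for candidate inhibitors of sentrin-specific proteases (SENPs)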
T3 sequence (P42574 whole entry): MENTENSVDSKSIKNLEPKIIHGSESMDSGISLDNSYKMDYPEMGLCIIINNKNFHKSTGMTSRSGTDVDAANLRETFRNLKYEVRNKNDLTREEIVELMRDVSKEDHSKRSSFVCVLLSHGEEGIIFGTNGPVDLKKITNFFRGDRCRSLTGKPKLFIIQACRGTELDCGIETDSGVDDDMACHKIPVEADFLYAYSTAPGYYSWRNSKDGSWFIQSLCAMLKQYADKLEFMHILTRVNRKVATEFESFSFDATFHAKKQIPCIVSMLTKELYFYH

[5] = target: T4, Sentrin-specific protease 7 (Homo sapiens, UniProt Q9BQF6); format: functional;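 note: Luminescence-based dose-response confirmation of ultra-high-throughput screening hits, measuring inhibition of SENP7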
T4 sequence (Q9BQF6 whole entry): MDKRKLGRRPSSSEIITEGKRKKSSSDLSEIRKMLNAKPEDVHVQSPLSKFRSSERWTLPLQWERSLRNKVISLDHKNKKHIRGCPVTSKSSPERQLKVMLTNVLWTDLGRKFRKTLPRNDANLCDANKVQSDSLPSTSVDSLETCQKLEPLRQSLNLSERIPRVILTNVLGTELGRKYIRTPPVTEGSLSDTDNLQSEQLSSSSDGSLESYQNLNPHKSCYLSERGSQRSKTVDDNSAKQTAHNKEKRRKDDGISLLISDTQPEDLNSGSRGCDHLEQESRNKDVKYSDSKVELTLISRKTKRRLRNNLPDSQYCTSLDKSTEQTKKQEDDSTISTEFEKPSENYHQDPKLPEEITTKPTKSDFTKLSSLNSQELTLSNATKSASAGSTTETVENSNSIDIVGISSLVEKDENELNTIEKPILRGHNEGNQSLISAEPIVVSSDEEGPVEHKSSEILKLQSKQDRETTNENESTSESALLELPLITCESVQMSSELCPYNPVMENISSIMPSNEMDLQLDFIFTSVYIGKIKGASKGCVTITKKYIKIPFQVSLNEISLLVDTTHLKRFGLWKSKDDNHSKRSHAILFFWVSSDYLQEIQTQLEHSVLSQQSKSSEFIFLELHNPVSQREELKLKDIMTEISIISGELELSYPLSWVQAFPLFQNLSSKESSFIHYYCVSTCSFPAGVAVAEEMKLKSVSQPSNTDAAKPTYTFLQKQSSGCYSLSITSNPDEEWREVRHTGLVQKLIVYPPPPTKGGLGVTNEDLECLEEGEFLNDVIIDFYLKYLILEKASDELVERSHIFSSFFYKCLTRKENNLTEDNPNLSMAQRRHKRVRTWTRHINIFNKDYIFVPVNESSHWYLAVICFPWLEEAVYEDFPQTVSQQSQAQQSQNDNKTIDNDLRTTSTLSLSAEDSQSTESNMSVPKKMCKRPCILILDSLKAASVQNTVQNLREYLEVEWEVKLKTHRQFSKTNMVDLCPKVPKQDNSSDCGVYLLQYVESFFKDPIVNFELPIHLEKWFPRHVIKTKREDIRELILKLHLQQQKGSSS

[6] = target: T5, Sentrin-specific protease 6 (Homo sapiens, UniProt Q9GZR1); format: functional;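 note: Luminescence-based dose-response confirmatory assay of SENP6 inhibition, following up an ultra-high-throughput screen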
T5 sequence (Q9GZR1 whole entry): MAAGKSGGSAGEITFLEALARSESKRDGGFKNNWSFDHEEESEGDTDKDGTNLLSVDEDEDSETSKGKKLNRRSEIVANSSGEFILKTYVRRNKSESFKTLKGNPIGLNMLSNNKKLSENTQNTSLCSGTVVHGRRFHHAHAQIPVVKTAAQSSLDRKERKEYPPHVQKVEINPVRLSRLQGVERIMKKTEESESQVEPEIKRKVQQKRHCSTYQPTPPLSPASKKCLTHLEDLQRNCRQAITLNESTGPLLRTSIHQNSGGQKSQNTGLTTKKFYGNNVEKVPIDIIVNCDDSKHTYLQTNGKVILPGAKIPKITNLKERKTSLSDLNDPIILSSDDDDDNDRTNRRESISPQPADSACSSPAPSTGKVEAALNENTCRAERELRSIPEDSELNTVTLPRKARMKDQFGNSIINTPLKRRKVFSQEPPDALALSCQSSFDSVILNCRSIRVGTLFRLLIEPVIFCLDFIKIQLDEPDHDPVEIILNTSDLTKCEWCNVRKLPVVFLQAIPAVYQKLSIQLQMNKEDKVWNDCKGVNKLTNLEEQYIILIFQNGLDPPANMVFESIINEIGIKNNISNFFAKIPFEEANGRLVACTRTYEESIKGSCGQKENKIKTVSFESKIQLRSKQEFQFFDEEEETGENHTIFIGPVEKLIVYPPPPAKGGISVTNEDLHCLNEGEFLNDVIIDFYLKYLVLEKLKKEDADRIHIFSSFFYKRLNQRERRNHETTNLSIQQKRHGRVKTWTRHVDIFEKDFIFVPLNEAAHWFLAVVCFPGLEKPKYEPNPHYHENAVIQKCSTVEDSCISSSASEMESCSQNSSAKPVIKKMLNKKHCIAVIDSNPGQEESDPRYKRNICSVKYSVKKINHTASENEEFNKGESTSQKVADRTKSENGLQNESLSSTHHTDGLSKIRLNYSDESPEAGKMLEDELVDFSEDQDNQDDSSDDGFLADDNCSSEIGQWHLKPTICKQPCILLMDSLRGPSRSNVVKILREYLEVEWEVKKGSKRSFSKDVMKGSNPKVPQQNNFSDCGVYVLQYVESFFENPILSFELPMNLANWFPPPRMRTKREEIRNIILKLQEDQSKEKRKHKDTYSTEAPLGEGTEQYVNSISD

[7] = target: T6, Sentrin-specific protease 8 (Homo sapiens, UniProt Q96LD8); format: functional;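 note: luminescence read-out of SENP8 inhibition, dose-response confirmation following an ultra-high-throughput screen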
T6 sequence (Q96LD8 whole entry): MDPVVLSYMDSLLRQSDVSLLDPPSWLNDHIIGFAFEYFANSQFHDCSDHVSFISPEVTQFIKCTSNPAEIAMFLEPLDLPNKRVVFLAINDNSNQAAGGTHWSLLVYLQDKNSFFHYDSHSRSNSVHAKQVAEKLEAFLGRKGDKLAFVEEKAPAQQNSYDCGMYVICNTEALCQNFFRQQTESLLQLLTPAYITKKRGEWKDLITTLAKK

Protein skinhead-1 = target: T7, Protein skinhead-1 (Caenorhabditis elegans, UniProt P34707); format: functional
T7 sequence (P34707 whole entry): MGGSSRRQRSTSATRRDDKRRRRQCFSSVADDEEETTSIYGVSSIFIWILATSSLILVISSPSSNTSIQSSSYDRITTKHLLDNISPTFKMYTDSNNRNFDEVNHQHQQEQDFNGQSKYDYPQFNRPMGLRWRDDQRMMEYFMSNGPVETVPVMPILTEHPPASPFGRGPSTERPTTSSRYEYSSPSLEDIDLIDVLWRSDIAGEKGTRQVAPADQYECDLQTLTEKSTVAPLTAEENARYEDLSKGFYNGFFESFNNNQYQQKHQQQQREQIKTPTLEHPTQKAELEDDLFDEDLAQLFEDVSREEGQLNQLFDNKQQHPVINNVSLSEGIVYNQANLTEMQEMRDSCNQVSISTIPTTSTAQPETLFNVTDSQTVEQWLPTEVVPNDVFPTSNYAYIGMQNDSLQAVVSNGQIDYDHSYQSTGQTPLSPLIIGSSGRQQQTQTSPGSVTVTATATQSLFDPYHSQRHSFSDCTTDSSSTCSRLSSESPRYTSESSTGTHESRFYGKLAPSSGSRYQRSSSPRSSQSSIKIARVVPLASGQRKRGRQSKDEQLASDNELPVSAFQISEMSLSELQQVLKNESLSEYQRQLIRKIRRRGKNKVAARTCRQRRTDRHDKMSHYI

[8] = target: FAD-linked sulfhydryl oxidase ALR (Homo sapiens, UniProt P55789); test: inhibitors of human ALR sulfhydryl oxidase, dose response, biochemical, H2O2 detection, luminescence, cherry-pick (AID 493248)
FAD-linked sulfhydryl oxidase ALR, sequence (P55789 whole entry): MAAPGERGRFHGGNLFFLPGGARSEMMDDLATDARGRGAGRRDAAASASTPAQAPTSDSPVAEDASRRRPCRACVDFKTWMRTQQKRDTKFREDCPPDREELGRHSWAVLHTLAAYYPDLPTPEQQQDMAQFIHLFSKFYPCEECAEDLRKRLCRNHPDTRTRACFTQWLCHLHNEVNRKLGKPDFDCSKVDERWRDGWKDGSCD

[9] = target: T8, Polyadenylate-binding protein 1 (Homo sapiens, UniProt P11940); test: PABP1 MLLE–PAM2 interaction inhibitors, dose response, miRNA deadenylation inhibitor project, biochemical, fluorescence polarization, Cy5-PAM2 peptide, secondary (AID 602260); format: functional; conditions: read-out: IC50_Mean
T8 sequence (P11940 whole entry): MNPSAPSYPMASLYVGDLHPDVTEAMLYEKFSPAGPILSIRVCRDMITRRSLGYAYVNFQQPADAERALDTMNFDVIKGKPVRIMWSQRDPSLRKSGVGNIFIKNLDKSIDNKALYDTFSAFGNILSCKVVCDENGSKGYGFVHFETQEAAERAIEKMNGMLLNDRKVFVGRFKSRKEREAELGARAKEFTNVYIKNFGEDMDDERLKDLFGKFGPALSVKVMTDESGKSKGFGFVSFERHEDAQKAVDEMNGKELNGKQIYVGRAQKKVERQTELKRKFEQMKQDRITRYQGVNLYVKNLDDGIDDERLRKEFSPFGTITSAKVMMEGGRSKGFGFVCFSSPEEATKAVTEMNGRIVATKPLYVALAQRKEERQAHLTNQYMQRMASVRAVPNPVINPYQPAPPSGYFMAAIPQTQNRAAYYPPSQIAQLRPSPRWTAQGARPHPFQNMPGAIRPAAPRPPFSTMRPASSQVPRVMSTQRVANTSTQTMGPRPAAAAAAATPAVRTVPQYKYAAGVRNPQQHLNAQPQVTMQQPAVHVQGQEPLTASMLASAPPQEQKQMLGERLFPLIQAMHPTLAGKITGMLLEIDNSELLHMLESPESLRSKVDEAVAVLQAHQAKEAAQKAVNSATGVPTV

[10] = target: T8, Polyadenylate-binding protein 1; test: PABP1 MLLE–PAM2 binding inhibitor potency, dose response, biochemical, fluorescence polarization, FITC-PAM2 peptide (AID 602259); format: functional; conditions: read-out: IC50_Mean

Row | IC50 [1] | IC50 (Caspase-3) | IC50 [5] | IC50 [6] | SMILES | IC50 [7] | other results
1 | 13.2 µM (active) |  |  |  | CC(C)=CCN1CCN(Cc2cn(C(C)C)c3ccccc23)CC1CCO (stereo not given) |  | 
2 | 11.3 µM (active) |  |  |  | CC1CCN(S(=O)(=O)c2ccc3c(c2)N(CC(=O)NCCN2C(C)CCCC2C)C(=O)CS3)CC1 (stereo not given) |  | 
3 |  | 17.4 µM (active) | 11.6 µM (active) | 22.4 µM (active) | CCCOc1ccc(-c2nnc(-c3ccco3)o2)cc1 | 25.8 µM (active) | IC50 (Protein skinhead-1): 64 µM (inactive)
4 | 14.5 µM (active) |  |  |  | CCOC(=O)c1sc(NC(=O)CCN2CCN(C)CC2)c(C(=O)OCC)c1C |  | 

Further lines, the compound ahead of its results:

Row | SMILES | IC50 [1] | IC50 (Caspase-3) | IC50 [5] | IC50 [6] | IC50 [7] | other results
5 | O=C(CCc1ccccc1)Nc1ccnn1C1CCN(C/C=C/c2ccccc2)CC1 |  |  |  |  |  | EC50 (cells [2]): > 350 µM (not active); EC50 (cells [3]): > 350 µM (not active); EC50 [4]: 1.5 µM (active)
6 | S=C(NCCCN1CCOCC1)Nc1cccc(-c2nnc3n2CCCCC3)c1 | 13.9 µM (active) |  |  |  |  | 
7 | c1ccc(Nc2[nH]nnc2-c2ccccc2)cc1 |  |  |  |  |  | EC50 [4]: 1.88 µM (active); AC50 [8]: > 100 µM (inactive)
8 | CCOC(=O)c1sc(NC(=O)c2ccc3nc[nH]c3c2)nc1C |  | 7.1 µM (active) | 2.47 µM (active) | 5.17 µM (active) | 3.4 µM (active) | 
9 | O=C(c1ccc(F)cc1)n1c(=S)nc2ccccn21 |  | 52.2 µM (active) | 18.1 µM (active) | 60.4 µM (active) | 86.1 µM (active) | IC50 [9]: > 66 µM (inactive); IC50 [10]: > 66 µM (inactive)
10 | COc1cccc(OC)c1OCCCCCc1c(C)n[nH]c1C | 9.12 µM (active) |  |  |  |  | 

Reference: ChEMBL document CHEMBL1201862, “PubChem BioAssay data set” (2004)
